Test results reported in US7957909B2, “Identification, monitoring and treatment of disease and characterization of biological condition using gene expression profiles” (Source Precision Medicine, Inc., priority 1999, dated 2011).

Columns and labels:
[1] = system: Inflammation Gene Expression Panel of Table 1; assay: Inflammation index of stable rheumatoid arthritis patients under three treatment regimens (FIGS. 21-23); type: in vivo, human; conditions: for inflammation index compared to normal: 10 stable rheumatoid arthritis patients per treatment group
Excerpt: (§1) FIG. 17A further illustrates the consistency of inflammatory gene expression, illustrated here with respect to 7 loci of (of the Inflammation Gene Expression Panel of Table 1), in a population of 44 normal, undiagnosed blood donors. For each individual locus is shown the range of values lying within ±2 standard deviations of the mean expression value, which corresponds to 95% of a normally distributed population. Notwithstanding the great width of the confidence interval (95%), the measured gene expression value (ΔCT)—remarkably—still lies within 10% of the mean, regardless of the expression level involved. As described in further detail below, for a given biological condition an index can be constructed to provide a measurement of the condition. This is possible as a result of the conjunction of two circumstances: (i) there is a remarkable consistency of Gene Expression Profiles with respect to a biological condition across a population and (ii) there can be employed procedures that provide substantially reproducible measurement of constituents in a Gene Expression Panel giving rise to a Gene Expression Profile, under measurement conditions wherein specificity and efficiencies of amplification for all constituents of the panel are substantially similar and which therefore provides a measurement of a biological condition. Accordingly, a function of the expression values of representative constituent loci of FIG. 17A is here used to generate an inflammation index value, which is normalized so that a reading of 1 corresponds to constituent expression values of healthy subjects, as shown in the right-hand portion of FIG. 17A.
This subject in fact was also on a regimen of an anti-inflammation steroid (prednisone) that was being tapered; within approximately one week after the inflammation index was sampled, the subject experienced a significant flare of clinical symptoms.

[2] = system: IL1A, IL1B, TNF, IFNG and IL10; assay: Acute Inflammation Index from blood of a single patient treated for optic neuritis (FIG. 2); type: in vivo, human; conditions: single patient with optic neuritis
Excerpt: (§2) For measuring the amount of a particular RNA in a sample, we have used methods known to one of ordinary skill in the art to extract and quantify transcribed RNA from a sample with respect to a constituent of a Gene Expression Panel. (See detailed protocols below. Also see PCT application publication number WO 98/24935 herein incorporated by reference for RNA analysis protocols). Briefly, RNA is extracted from a sample such as a tissue, body fluid, or culture medium in which a population of a subject might be growing. For example, cells may be lysed and RNA eluted in a suitable solution in which to conduct a DNAse reaction. First strand synthesis may be performed using a reverse transcriptase. Gene amplification, more specifically quantitative PCR assays, can then conducted and the gene of interest size calibrated against a marker such as 18S rRNA (Hirayama et al., Blood 92, 1998: 46-52). Samples are measured in multiple duplicates, for example, 4 replicates. Relative quantitation of the mRNA is determined by the difference in threshhold cycles between the internal control and the gene of interest. In an embodiment of the invention, quantitative PCR is performed using amplification, reporting agents and instruments such as those supplied commercially by Applied Biosystems (Foster City, Calif.). […]

[3] = system: Inflammation Gene Expression Panel of Table 1; assay: Inflammatory gene expression in whole blood of a human subject after a single oral dose of prednisone (FIG. 14); type: in vivo
Excerpt: as §2

[4] = system: 5 genes (of the Inflammation Gene Expression Panel of Table 1); assay: Gene expression in whole blood samples from a subject given prednisone, challenged with lipopolysaccharide (FIG. 15); type: in vivo, human; conditions: blood challenged with 0.1 ng/ml lipopolysaccharide
Excerpt: For measuring the amount of a particular RNA in a sample, we have used methods known to one of ordinary skill in the art to extract and quantify transcribed RNA from a sample with respect to a constituent of a Gene Expression Panel. (See detailed protocols below. Also see PCT application publication number WO 98/24935 herein incorporated by reference for RNA analysis protocols). Briefly, RNA is extracted from a sample such as a tissue, body fluid, or culture medium in which a population of a subject might be growing. For example, cells may be lysed and RNA eluted in a suitable solution in which to conduct a DNAse reaction. First strand synthesis may be performed using a reverse transcriptase. Gene amplification, more specifically quantitative PCR assays, can then conducted and the gene of interest size calibrated against a marker such as 18S rRNA (Hirayama et al., Blood 92, 1998: 46-52). Samples are measured in multiple duplicates, for example, 4 replicates. Relative quantitation of the mRNA is determined by the difference in threshhold cycles between the internal control and the gene of interest. In an embodiment of the invention, quantitative PCR is performed using amplification, reporting agents and instruments such as those supplied commercially by Applied Biosystems (Foster City, Calif.). Given a defined efficiency of amplification of target transcripts, the point (e.g., cycle number) that signal from amplified target template is detectable may be directly related to the amount of specific message transcript in the measured sample. Similarly, other quantifiable signals such as fluorescence, enzyme activity, disintegrations per minute, absorbance, etc., when correlated to a known concentration of target templates (e.g., a reference standard curve) or normalized to a standard with limited variability can be used to quantify the number of target templates in an unknown sample.
Specific RNAs are amplified using message specific primers or random primers. […]

[5] = system: Inflammation Gene Expression Panel of Table 1; assay: Inflammation index of a single subject with inflammatory bowel disease treated with Remicade (FIG. 24); type: in vivo, human
Excerpt: as §1
FIG. 24 illustrates use of the inflammation index for assessment of a single subject suffering from inflammatory bowel disease, for whom treatment with Remicade was initiated in three doses. […] Again, the index, besides providing a measure of biological condition, is here used to measure the effectiveness of therapy (Remicade), as well as to provide a target for therapeutic intervention in terms of both dose and schedule.

[6] = system: Inflammation Gene Expression Panel of Table 1; conditions: studies have shown; some subjects; cited from earlier work
IL1B = assay: Whole blood response to E. coli filtrate alone and with polymyxin B (FIG. 34); type: cell-based, human; conditions: polymyxin B added to E. coli filtrate
Excerpt: FIGS. 27 through 41 illustrate the use of gene expression panels in early identification and monitoring of infectious disease. These figures plot the response, in expression products of the genes indicated, in whole blood, to the administration of various infectious agents or products associated with infectious agents. In each figure, the gene expression levels are “calibrated”, as that term is defined herein, in relation to baseline expression levels determined with respect to the whole blood prior to administration of the relevant infectious agent. In this respect the figures are similar in nature to various figures of our below-referenced patent application WO 01/25473 (for example, FIG. 15 therein). The concentration change is shown ratiometrically, and the baseline level of 1 for a particular gene locus corresponds to an expression level for such locus that is the same, monitored at the relevant time after addition of the infectious agent or other stimulus, as the expression level before addition of the stimulus. Ratiometric changes in concentration are plotted on a logarithmic scale. Bars below the unity line represent decreases in concentration and bars above the unity line represent increases in concentration, the magnitude of each bar indicating the magnitude of the ratio of the change. […]
The responses were monitored at 2, 6, and 24 hours after administration. […]

[7] = 10 stable rheumatoid arthritis patients

For `CN(Cc1cnc2nc(N)nc(N)c2n1)c1ccc(C(=O)N[C@@H](CCC(=O)O)C(=O)O)cc1` [methotrexate], the “inflammation index compared to normal” value [1] was “elevated compared to normal”.

With `C[C@]12C=CC(=O)C=C1CC[C@@H]1[C@@H]2C(=O)C[C@@]2(C)[C@H]1CC[C@]2(O)C(=O)CO` [prednisone] the acute inflammation index ([2]; oral prednisone at 60 mg per day tapered to 10 mg per day) was “goes up”, the “expression of inflammation-related gene loci relative to baseline sample” value ([3]; 2 hr post single 60 mg oral dose) was “decreased expression of most of inflammation-related gene loci” and the “expression of inflammation-related gene loci relative to baseline sample” value ([3]; 24 hr post single 60 mg oral dose, loci with reduced expression at 2 hours) was “elevated gene expression levels”. The “gene expression of the 5 loci in relation to t=0” value ([4]; 24 hours post administration) was “inhibitory effect of the prednisone is no longer apparent”, the “loci at which gene expression is higher than at t=0 (rebound effect)” value ([4]; 24 hours post administration) was 3 of the 5 loci and the “gene expression of the 5 loci in relation to t=0” value ([4]; two hours after single dose) was “dramatically reduced gene expression”.

With `C[C@H]1C[C@@H]2[C@H]([C@@H](O)C[C@@]3(C)[C@H]2CC[C@]3(O)C(=O)COC(=O)CCC(=O)O)[C@@]2(C)C=CC(=O)C=C12` [solumedrol] the acute inflammation index ([2]; treatment with IV solumedrol at 1 gram per day) was “falls rapidly”.

For Enbrel, the “patients with inflammation index in the normal range” value [1, 7] was 80% and the “inflammation index compared to normal” value [1] was “comes much closer to normal”.

With Remicade: another TNF inhibitor the inflammation index ([5]; 24 hours after the first treatment) was “returned to the normal range”, the inflammation index ([5]; just prior to the second dose) was “elevated” and the inflammation index ([5]; prior to the third dose) was “in the normal range”. For the same compound, the “abnormally low inflammation index in two of the patients” value [1, 7] was “suggesting an immunosuppressive response”, the “inflammation index compared to normal” value [1] was “all but one of the patients being treated with Remicade have an inflammation index at or below normal” and the “association with infections in studies” value [6] was “associated with serious infections in some subjects”.

With polymyxin B the “effect on the response of IL1B locus to E. coli filtrate” value (IL1B) was “did not affect the response”.
